Results published in US10138211B2, “Crystalline forms of olaparib and manufacturing processes therefor” (ScinoPharm Taiwan, Ltd., priority 2016, dated 2018).
Converted amounts (≈) assume the structure as drawn.

Columns and labels:
[1] = Solubility of olaparib at 60° C. in solvents; format: physicochemical
Protocol: (§1) As used herein, the term “solvent” refers to a liquid substance capable of dissolving olaparib at a concentration of at least about 2.5% (w/w) at 60° C. The term “anti-solvent” refers to a liquid substance which is not capable of dissolving olaparib at a concentration of […] about 2.5% (w/w) at 60° C.

[2] = Solubility of olaparib at room temperature in solvents; format: physicochemical; conditions: for solubility: organic solvent or mixture
Protocol: as §1

- Solubility of olaparib at 60° C. ([1]; ACN): <2.1 wt %
- Solubility of olaparib at 60° C. ([1]; Cyclohexane): <2.1 wt %
- Solubility of olaparib at 60° C. ([1]; DMAc): >23.5 wt %
- Solubility of olaparib at 60° C. ([1]; EA): <1.8 wt %
- Solubility of olaparib at 60° C. ([1]; EtOH): 2.6-2.9 wt %
- Solubility of olaparib at 60° C. ([1]; IPA): <2.1 wt %
- Solubility of olaparib at 60° C. ([1]; MeOH): 6.7-8.8 wt %
- Solubility of olaparib at 60° C. ([1]; Pyridine): >21.5 wt %
- Solubility of olaparib at 60° C. ([1]; THF): <1.9 wt %
- Solubility of olaparib at 60° C. ([1]; Toluene): <1.9 wt %
- Solubility of olaparib at 60° C. ([1]; Xylenes): <1.9 wt %
- solubility ([1]; acetonitrile (ACN), organic solvent or mixture, ACN): < 16.2 mg/mL
- solubility ([1]; ethanol (EtOH), organic solvent or mixture, EtOH): 21 to 23 mg/mL (≈ 48.3 to 52.9 mM)
- solubility ([1]; isopropanol (IPA), organic solvent or mixture, IPA): < 16.2 mg/mL
- solubility ([1]; methanol (MeOH), organic solvent or mixture, MeOH): 53 to 70 mg/mL (≈ 122 to 161 mM)
- Solubility of olaparib at 60° C. ([1]; n-butanol): <2.1 wt %
- Solubility of olaparib at 60° C. ([1]; n-heptane): <2.4 wt %
- solubility ([1]; organic solvent or mixture, Cyclohexane): < 16.2 mg/mL
- solubility ([1]; organic solvent or mixture, DMAc): > 220 mg/mL
- solubility ([1]; organic solvent or mixture, EA): < 16.2 mg/mL
- solubility ([1]; organic solvent or mixture, Pyridine): > 210 mg/mL
- solubility ([1]; organic solvent or mixture, THF): < 16.9 mg/mL
- solubility ([1]; organic solvent or mixture, Toluene): < 16.9 mg/mL
- solubility ([1]; organic solvent or mixture, Xylenes): < 16.2 mg/mL
- solubility ([1]; organic solvent or mixture, n-butanol): < 16.9 mg/mL
- solubility ([1]; organic solvent or mixture, n-heptane): < 16.2 mg/mL
- Solubility of olaparib at 60° C. ([1]; water): <1.6 wt %
- solubility ([1]; water): < 16.2 mg/mL
- Solubility of olaparib at room temperature ([2]; AcOH): >20.0 wt %
- Solubility of olaparib at room temperature ([2]; DMSO): >19.1 wt %
- solubility ([2]; acetic acid (AcOH), AcOH): > 210 mg/mL
- solubility ([2]; DMSO): > 210 mg/mL
Compound: O=C(c1cc(Cc2n[nH]c(=O)c3ccccc23)ccc1F)N1CCN(C(=O)C2CC2)CC1 [olaparib, 4-[(3-[(4-cyclopropylcarbonyl)piperazin-4-yl]carbonyl)-4-fluorophenyl]methyl(2H)phthalazin-1-one]
